Where “and” joins values, the source holds several entries; their conditions need not be identical. Equal entries are not always repeated. Numbers after ± are expanded uncertainties.
How the values were obtained:
[1] = 101 kPa, Liquid, Vibrating tube method
[2] = xn = mol fraction of the nth substance listed; settings: 101 kPa, Liquid, Vibrating tube method
[3] = excess molar enthalpy (molar enthalpy of mixing); xn = mol fraction of the nth substance listed; settings: 101 kPa, Liquid

## CCCCn1cc[n+](C)c1.F[B-](F)(F)F [1-butyl-3-methylimidazolium tetrafluoroborate]
[1]; 283.15 K
  mass density: 1213.3 ± 2.8 kg/m3
[1]; 293.15 K
  mass density: 1205.9 ± 2.8 kg/m3
[1]; 303.15 K
  mass density: 1198.6 ± 2.8 kg/m3
[1]; 313.15 K
  mass density: 1191.4 ± 2.7 kg/m3
[1]; 323.15 K
  mass density: 1184.4 ± 2.7 kg/m3
[1]; 333.15 K
  mass density: 1177.4 ± 2.7 kg/m3

## CCCCn1cc[n+](C)c1.F[B-](F)(F)F [1-butyl-3-methylimidazolium tetrafluoroborate] + OCC(F)(F)F
[2]; 283.15 K, x1 = 1
  mass density: 1213.3 ± 2.8 kg/m3
[2]; 293.15 K, x1 = 1
  mass density: 1205.9 ± 2.8 kg/m3
[2]; 303.15 K, x1 = 1
  mass density: 1198.6 ± 2.8 kg/m3
[2]; 313.15 K, x1 = 1
  mass density: 1191.4 ± 2.7 kg/m3
[2]; 323.15 K, x1 = 1
  mass density: 1184.4 ± 2.7 kg/m3
[2]; 333.15 K, x1 = 1
  mass density: 1177.4 ± 2.7 kg/m3

## CCn1cc[n+](C)c1.F[B-](F)(F)F [1-ethyl-3-methylimidazolium tetrafluoroborate]
[1]; 293.1 K
  mass density: 1284.3 ± 3.2 kg/m3
[1]; 303.11 K
  mass density: 1276.5 ± 3.2 kg/m3
[1]; 313.15 K
  mass density: 1269.2 ± 3.1 kg/m3
[1]; 323.14 K
  mass density: 1261.8 ± 3.1 kg/m3
[1]; 333.23 K
  mass density: 1254.6 ± 3 kg/m3

## CCn1cc[n+](C)c1.F[B-](F)(F)F [1-ethyl-3-methylimidazolium tetrafluoroborate] + OCC(F)(F)F
[2]; 293.1 K, x1 = 1
  mass density: 1284.3 ± 3.2 kg/m3
[2]; 303.11 K, x1 = 1
  mass density: 1276.5 ± 3.2 kg/m3
[2]; 313.15 K, x1 = 1
  mass density: 1269.2 ± 3.1 kg/m3
[2]; 323.14 K, x1 = 1
  mass density: 1261.8 ± 3.1 kg/m3
[2]; 333.23 K, x1 = 1
  mass density: 1254.6 ± 3 kg/m3

## OCC(F)(F)F [2,2,2-trifluoroethanol]
[1]; 283.15 K
  mass density: 1408.2 ± 0.8 kg/m3
[1]; 293.14 K
  mass density: 1389.7 ± 0.8 kg/m3
[1]; 293.15 K
  mass density: 1391.1 ± 0.8 kg/m3
[1]; 303.15 K
  mass density: 1373.8 ± 0.8 kg/m3
[1]; 303.19 K
  mass density: 1372.4 ± 0.8 kg/m3
[1]; 313.15 K
  mass density: 1356.1 ± 0.8 kg/m3 and 1354.8 ± 0.8 kg/m3
[1]; 323.15 K
  mass density: 1338 ± 0.8 kg/m3 and 1336.6 ± 0.8 kg/m3
[1]; 333.15 K
  mass density: 1317.8 ± 0.8 kg/m3 and 1319.1 ± 0.8 kg/m3

## OCC(F)(F)F [2,2,2-trifluoroethanol] + CCn1cc[n+](C)c1.F[B-](F)(F)F
[2]; 293.14 K, x2 = 0
  mass density: 1389.7 ± 0.8 kg/m3
[2]; 293.14 K, x2 = 0.755
  mass density: 1299.6 ± 1.9 kg/m3
[2]; 293.15 K, x2 = 0.099
  mass density: 1373.3 ± 0.8 kg/m3
[2]; 293.16 K, x2 = 0.305
  mass density: 1340.6 ± 0.9 kg/m3
[2]; 293.17 K, x2 = 0.5164
  mass density: 1318.4 ± 1.2 kg/m3
[2]; 303.16 K, x2 = 0.5164
  mass density: 1308.9 ± 1.2 kg/m3
[2]; 303.17 K, x2 = 0.099
  mass density: 1359.1 ± 0.8 kg/m3
[2]; 303.17 K, x2 = 0.755
  mass density: 1291.3 ± 1.9 kg/m3
[2]; 303.18 K, x2 = 0.305
  mass density: 1329.4 ± 0.9 kg/m3
[2]; 303.19 K, x2 = 0
  mass density: 1372.4 ± 0.8 kg/m3
[2]; 313.15 K, x2 = 0
  mass density: 1354.8 ± 0.8 kg/m3
[2]; 313.15 K, x2 = 0.099
  mass density: 1344.7 ± 0.8 kg/m3
[2]; 313.16 K, x2 = 0.305
  mass density: 1318.4 ± 0.9 kg/m3
[2]; 313.16 K, x2 = 0.755
  mass density: 1282.9 ± 1.9 kg/m3
[2]; 313.19 K, x2 = 0.5164
  mass density: 1299.3 ± 1.2 kg/m3
[2]; 323.12 K, x2 = 0.099
  mass density: 1330.5 ± 0.8 kg/m3
[2]; 323.14 K, x2 = 0.5164
  mass density: 1290.2 ± 1.2 kg/m3
[2]; 323.15 K, x2 = 0
  mass density: 1336.6 ± 0.8 kg/m3
[2]; 323.15 K, x2 = 0.305
  mass density: 1307.3 ± 0.9 kg/m3
[2]; 323.2 K, x2 = 0.755
  mass density: 1274.7 ± 1.9 kg/m3
[2]; 333.14 K, x2 = 0.755
  mass density: 1266.8 ± 1.9 kg/m3
[2]; 333.15 K, x2 = 0
  mass density: 1317.8 ± 0.8 kg/m3
[2]; 333.15 K, x2 = 0.5164
  mass density: 1281.1 ± 1.2 kg/m3
[2]; 333.16 K, x2 = 0.305
  mass density: 1296.4 ± 0.9 kg/m3
[2]; 333.2 K, x2 = 0.099
  mass density: 1315.8 ± 0.8 kg/m3
[3]; 298.15 K, x2 = 0.0555
  excess molar enthalpy: 0.0929 ± 0.00382 kcal/mol
[3]; 298.15 K, x2 = 0.1114
  excess molar enthalpy: 0.15 ± 0.00574 kcal/mol
[3]; 298.15 K, x2 = 0.1904
  excess molar enthalpy: 0.256 ± 0.00956 kcal/mol
[3]; 298.15 K, x2 = 0.3199
  excess molar enthalpy: 0.288 ± 0.0105 kcal/mol
[3]; 298.15 K, x2 = 0.4137
  excess molar enthalpy: 0.273 ± 0.01 kcal/mol
[3]; 298.15 K, x2 = 0.4847
  excess molar enthalpy: 0.25 ± 0.00932 kcal/mol
[3]; 298.15 K, x2 = 0.5852
  excess molar enthalpy: 0.208 ± 0.00789 kcal/mol
[3]; 298.15 K, x2 = 0.7016
  excess molar enthalpy: 0.155 ± 0.00598 kcal/mol
[3]; 298.15 K, x2 = 0.79
  excess molar enthalpy: 0.112 ± 0.00454 kcal/mol
[3]; 298.15 K, x2 = 0.9039
  excess molar enthalpy: 0.0506 ± 0.00234 kcal/mol
[3]; 323.15 K, x2 = 0.0555
  excess molar enthalpy: 0.0535 ± 0.00239 kcal/mol
[3]; 323.15 K, x2 = 0.1114
  excess molar enthalpy: 0.0933 ± 0.00382 kcal/mol
[3]; 323.15 K, x2 = 0.1904
  excess molar enthalpy: 0.172 ± 0.00669 kcal/mol
[3]; 323.15 K, x2 = 0.2477
  excess molar enthalpy: 0.181 ± 0.00693 kcal/mol
[3]; 323.15 K, x2 = 0.3199
  excess molar enthalpy: 0.185 ± 0.00693 kcal/mol
[3]; 323.15 K, x2 = 0.4137
  excess molar enthalpy: 0.171 ± 0.00645 kcal/mol
[3]; 323.15 K, x2 = 0.4847
  excess molar enthalpy: 0.155 ± 0.00598 kcal/mol
[3]; 323.15 K, x2 = 0.5852
  excess molar enthalpy: 0.126 ± 0.00502 kcal/mol
[3]; 323.15 K, x2 = 0.7016
  excess molar enthalpy: 0.0908 ± 0.00382 kcal/mol
[3]; 323.15 K, x2 = 0.79
  excess molar enthalpy: 0.0632 ± 0.00287 kcal/mol
[3]; 323.15 K, x2 = 0.9216
  excess molar enthalpy: 0.0233 ± 0.00148 kcal/mol

Source: the NIST ThermoML archive (doi:10.1021/je100693c)
